Article doi:10.1101/2022.12.25.521902v1 (biorxiv, 2022)

Tested on: MsC17OMT (MsOMT1)
Experiment: LC-MS/MS methyltransferase assay, Michaelis-Menten fit
Assay type: biochemical, Mitragyna speciosa
Conditions: 100 μM SAM, Tris-HCl pH 7.5, 30 °C, 2 min

Row | SMILES | Km
1 | C/C=C1/CN2CCc3c([nH]c4ccccc34)[C@@H]2C[C@@H]1/C(=C/O)C(=O)OC [compound 3, 19E-geissoschizine] | 5.3 µM
2 | C/C=C1\CN2CCc3c([nH]c4ccccc34)[C@@H]2C[C@@H]1/C(=C/O)C(=O)OC [compound 4, 19Z-geissoschizine] | 12.8 µM
